According to ChEMBL document CHEMBL1151340, “Antimicrobial agents from higher plants. Antimicrobial isoflavanoids and related substances from Glycyrrhiza glabra L. var. typica” (1980):
Converted amounts (≈) assume the structure as drawn. The source made the active and inactive calls. No cut-off for these calls is given here.

Columns and labels:
Staphylococcus aureus [1] = assay: Antibacterial activity against Staphylococcus aureus ATCC 13709 by agar-dilution streak method; format: functional
Escherichia coli [2] = assay: Antibacterial activity against Escherichia coli ATCC 9637 at 100 mcg/ml by agar-dilution streak method; format: functional, organism-based
[3] = tested on: Salmonella enterica subsp. enterica serovar Gallinarum; assay: Antibacterial activity against Salmonella gallinarum ATCC 9184 at 100 mcg/ml by agar-dilution streak method; format: functional, organism-based
Klebsiella pneumoniae [4] = assay: Antibacterial activity against Klebsiella pneumoniae ATCC 10031 at 100 mcg/ml by agar-dilution streak method; format: functional, organism-based
[5] = tested on: Mycolicibacterium smegmatis; assay: Antibacterial activity against Mycobacterium smegmatis ATCC 607 by agar-dilution streak method; format: functional
Candida albicans [6] = assay: Antifungal activity against Candida albicans ATCC 10231 at 100 mcg/ml by agar-dilution streak method; format: functional, organism-based
[7] = tested on: Mycolicibacterium smegmatis; assay: Antibacterial activity against Mycobacterium smegmatis ATCC 607 at 100 mcg/ml by agar-dilution streak method; format: functional
Staphylococcus aureus [8] = assay: Antibacterial activity against Staphylococcus aureus ATCC 13709 at 100 mcg/ml by agar-dilution streak method; format: functional, organism-based
Escherichia coli [9] = assay: Antibacterial activity against Escherichia coli ATCC 9637 by agar-dilution streak method; format: functional
Candida albicans [10] = assay: Antifungal activity against Candida albicans ATCC 10231 by agar-dilution streak method; format: functional
[11] = tested on: Salmonella enterica subsp. enterica serovar Gallinarum; assay: Antibacterial activity against Salmonella gallinarum ATCC 9184 by agar-dilution streak method; format: functional
Klebsiella pneumoniae [12] = assay: Antibacterial activity against Klebsiella pneumoniae ATCC 10031 by agar-dilution streak method; format: functional

SMILES | MIC (Staphylococcus aureus [1]) [µg/mL] | MIC [5] [µg/mL] | MIC (Candida albicans [10]) [µg/mL] | MIC [7] [µg/mL] | MIC (Escherichia coli [9]) [µg/mL] | MIC [11] [µg/mL] | MIC (Klebsiella pneumoniae [12]) [µg/mL] | Activity (Escherichia coli [2]) | Activity [3] | Activity (Klebsiella pneumoniae [4]) | Activity (Candida albicans [6]) | Activity [7] | Activity (Staphylococcus aureus [8]) | Activity (Escherichia coli [9])
CC(C)=CCc1cc([C@H]2Oc3c(ccc(O)c3CC=C(C)C)C(=O)[C@@H]2O)ccc1O | 6.25 (≈ 15.3 µM) | 6.25 (≈ 15.3 µM) | – | – | – | – | – | inactive | inactive | inactive | inactive | – | – | –
COc1ccc(-c2coc3cc(O)ccc3c2=O)cc1 | – | – | – | – | – | – | – | inactive | inactive | inactive | inactive | inactive | inactive | –
CC1(C)C=Cc2c(O)ccc(C3=Cc4ccc(O)cc4OC3)c2O1 [GLABRENE] | 25 (≈ 77.6 µM) | 25 (≈ 77.6 µM) | – | – | – | – | – | inactive | inactive | inactive | inactive | – | – | –
CC(C)=CCc1cc([C@@H]2CC(=O)c3ccc(O)c(CC=C(C)C)c3O2)ccc1O [GLABROL] | 1.56 (≈ 3.97 µM) | 1.56 (≈ 3.97 µM) | – | – | – | – | – | inactive | inactive | inactive | inactive | – | – | –
CC(C)=CCc1c(O)ccc([C@@H]2COc3c(ccc4c3C=CC(C)(C)O4)C2)c1O [HISPAGLABRIDIN A] | 3.12 (≈ 7.95 µM) | 3.12 (≈ 7.95 µM) | – | – | – | – | – | inactive | inactive | inactive | inactive | – | – | –
CN[C@@H]1[C@H](O[C@H]2[C@H](O[C@H]3[C@H](O)[C@@H](O)[C@H](N=C(N)N)[C@@H](O)[C@@H]3N=C(N)N)O[C@@H](C)[C@]2(O)C=O)O[C@@H](CO)[C@H](O)[C@H]1O.CN[C@@H]1[C@H](O[C@H]2[C@H](O[C@H]3[C@H](O)[C@@H](O)[C@H](N=C(N)N)[C@@H](O)[C@@H]3N=C(N)N)O[C@@H](C)[C@]2(O)C=O)O[C@@H](CO)[C@H](O)[C@H]1O.O=S(=O)(O)O.O=S(=O)(O)O.O=S(=O)(O)O [STREPTOMYCIN SULFATE] | 5 | 1.25 | – | – | 5 | 50 | 2.5 | – | – | – | inactive | – | – | –

Second part, led by results:

MIC (Staphylococcus aureus [1]) [µg/mL] | MIC [5] [µg/mL] | MIC (Candida albicans [10]) [µg/mL] | MIC [7] [µg/mL] | MIC (Escherichia coli [9]) [µg/mL] | MIC [11] [µg/mL] | MIC (Klebsiella pneumoniae [12]) [µg/mL] | SMILES | Activity (Escherichia coli [2]) | Activity [3] | Activity (Klebsiella pneumoniae [4]) | Activity (Candida albicans [6]) | Activity [7] | Activity (Staphylococcus aureus [8]) | Activity (Escherichia coli [9])
50 (≈ 141 µM) | – | – | – | – | – | – | COc1c(O)ccc([C@@H]2COc3c(ccc4c3C=CC(C)(C)O4)C2)c1O | inactive | inactive | inactive | inactive | inactive | – | –
6.25 (≈ 18.5 µM) | 3.12 (≈ 9.22 µM) | – | – | – | – | – | COc1ccc([C@@H]2COc3c(ccc4c3C=CC(C)(C)O4)C2)c(O)c1 | inactive | inactive | inactive | inactive | – | – | –
6.25 (≈ 19.3 µM) | 6.25 (≈ 19.3 µM) | 25 (≈ 77.1 µM) | – | – | – | – | CC1(C)C=Cc2c(ccc3c2OC[C@@H](c2ccc(O)cc2O)C3)O1 [GLABRIDIN] | inactive | inactive | inactive | – | – | inactive | inactive
6.25 (≈ 16 µM) | 3.12 (≈ 7.99 µM) | – | – | – | – | – | CC1(C)C=Cc2c(ccc([C@@H]3COc4c(ccc5c4C=CC(C)(C)O5)C3)c2O)O1 [HISPAGLABRIDIN B] | inactive | inactive | inactive | inactive | – | – | –
25 (≈ 77.1 µM) | – | – | 12.5 (≈ 38.5 µM) | – | – | – | CC1(C)C=Cc2c(ccc([C@@H]3COc4cc(O)ccc4C3)c2O)O1 [PHASEOLLINISOFLAVAN] | inactive | inactive | inactive | inactive | – | – | –
